Results: patent publication US7550599B2, “Water compatible sterically hindered alkoxyamines and hydroxy substituted alkoxyamines” (Ciba Specialty Chemicals Corporation, priority 2003, dated 2009)
One block for each compound: values may come before it.

Assays:
[1] = Compatibility (clarity) in water borne urethane/acrylic copolymer coating, Example 101; format: physicochemical; details: 2% by weight stabilizer; haziness = incompatibility
Method: Formulation Reference: NeoResins, Inc., Formulation WB-2010, Technical Brochure, August, 2000.
(§1) The following components are mixed together under good agitation:
This solution is added to a 4 ounce clear glass jar containing 72.85 parts of NeoPac R-9699 under vigorous agitation and agitated for 10 minutes. Optionally, a defoamer, like Dehydran 1620 (Henkel), and a flash rusting agent, like Heiscore XAB (Cas Chem), are added. The lid is placed securely on the jar. The solidified coatings are visually observed for clarity after solidification. The development of opacity or haziness is indicative of an incompatibility between the hindered amine stabilizer and the formulated coating.

[2] = Solubility in 25% butyl cellusolve / 75% water; format: physicochemical; details: 25% butyl cellusolve / 75% water by weight; stirred 30 minutes
Method: The solubility of the instant compounds is evaluated in polar solvent systems. A solution of 25% butyl cellusolve by weight and 75% water by weight is prepared. The instant compounds are added to this solution, stirred for 30 minutes, and sampled for analysis. Samples containing bis[…] and 4-hydroxy-1-(2-hydroxy-2-methylpropoxy)-2,2,6,6-tetramethylpiperidine are filtered to remove any undissolved residue and all samples are analyzed by high pressure liquid chromatography or gas chromatography.

[3] = Solubility in 50% butyl cellusolve / 50% water; format: physicochemical; details: 50% butyl cellusolve / 50% water by weight; stirred 30 minutes
Method: The solubility of the instant compounds is evaluated in polar solvent systems. A solution of 50% butyl cellusolve by weight and 50% water by weight is prepared. The instant compounds are added to this solution stirred for 30 minutes, and sampled for analysis. Samples containing bis(1-octyloxy-2,2,6,6-tetramethylpiperidin-4-yl)sebacate and 4-hydroxy-1-(2-hydroxy-2-methylpropoxy)-2,2,6,6-tetramethylpiperidine are filtered to remove any undissolved residue and all samples are analyzed by high pressure liquid chromatography or gas chromatography.

[4] = Solubility in 50% butyl carbitol / 50% water; format: physicochemical; details: 50% butyl carbitol / 50% water by weight; stirred 30 minutes
Method: The solubility of the instant compounds is evaluated in polar solvent systems. A solution of 50% butyl carbitol by weight and 50% water by weight is prepared. The instant compounds are added to this solution, stirred for 30 minutes, and sampled for analysis. Samples containing bis(1-octyloxy-2,2,6,6-tetramethylpiperidin-4-yl)sebacate and 4-hydroxy-1-(2-hydroxy-2-methylpropoxy)-2,2,6,6-tetramethylpiperidine are filtered to remove any undissolved residue and all samples are analyzed by high pressure liquid chromatography or gas chromatography.

[5] = Solubility in water; format: physicochemical; details: stirred 30 minutes
Method: The solubility of the instant compounds is evaluated in polar solvent systems. The instant compounds are added to water, stirred for 30 minutes, and sampled for analysis. Samples containing bis(1-octyloxy-2,2,6,6-tetramethylpiperidin-4-yl)sebacate and 4-hydroxy-1-(2-hydroxy-2-methylpropoxy)-2,2,6,6-tetramethylpiperidine are filtered to remove any undissolved residue and all samples are analyzed by high pressure liquid chromatography or gas chromatography.

[6] = Ink jet media light fastness, cyan, Example 34; details: 50% print density; office fluorescent lighting; 650-700 mg/m2
Method: (§2) A resin-coated paper impregnated with inorganic adsorbent particles (Konica QP Photoglossy ink jet paper, Konica Corp.) is purchased. On the ink-receiving layer, a 0.8 wt % methanol solution of the instant compounds is applied in an amount to achieve 650-700 mg/m^2, unless otherwise stated. The paper is allowed to dry under ambient temperature and pressure for 24 hours. Separately, test patterns (cyan) are printed on the treated sheets using a Hewlett Packard DeskJet 970 Cxi printer at 50% print density. The obtained prints are left to dry at ambient temperature and pressure for 24 hours. Color densities and CIEL*a*b coordinates before and after exposure are measured using X-Rite 938 Spectrodensitometer. Exposures are carried out using normal office fluorescent lighting.

[7] = Ink jet media light fastness, yellow, Example 33; details: 50% print density as printed, office fluorescent lighting, 650-700 mg/m2
Method: as §2, with “stated otherwise.” for “otherwise stated.”, “(yellow)” for “(cyan)”

[8] = Ink jet media light fastness, cyan, Example 31; details: 100% print density; office fluorescent lighting; 650-700 mg/m2
Method: as §2, with “100%” for “50%”

[9] = Ink jet media light fastness, yellow, Example 36; details: 50% print density, office fluorescent lighting, 650-700 mg/m2
Method: as §2, with “stated otherwise.” for “otherwise stated.”, “(yellow)” for “(cyan)”

[10] = Ink jet media light fastness, magenta, Example 32; details: 100% print density; office fluorescent lighting; 650-700 mg/m2
Method: as §2, with “(magenta)” for “(cyan)”, “100%” for “50%”

[11] = Compatibility (clarity) of acrylic copolymer coating in Petri dish, Example 114; format: physicochemical; details: coating of Example 112; oven 65 C thirty minutes; 2% by weight stabilizer
Method: The hindered amine test stabilizers are incorporated into a coating system as described in Example 112. A 9.5-10 gram sample of each of the liquid coatings is added to a 100 mm×15 mm Petri dish and is placed in an oven at 65 C for thirty minutes. The samples are taken out of the oven, allowed to cool, and are visually observed for clarity over time. The development of opacity or haziness is indicative of an incompatibility between the hindered amine stabilizer and the formulated coating.

[12] = Compatibility (clarity) in two component water-borne polyurethane coating, jar, Example 113; format: physicochemical; details: 2% by weight stabilizer, with UVA; haziness = incompatibility
Method: Formulation Reference: Bayer Corp., 2K Waterborne Clear, Notebook #820894-A, Technical Brochure.
as §1
This solution is added to a 4 ounce clear glass jar containing 15.56 parts of Bayhydur XP-7165 and 3.91 parts of Exxate 700 under vigorous agitation and is agitated for 10 minutes. The lid is placed securely on the jar. The solidified coating samples are visually observed for clarity over time. The development of opacity or haziness is indicative of an incompatibility between the hindered amine stabilizer and the formulated coating.

[13] = Compatibility (clarity) in alkali-soluble water-borne acrylic copolymer coating, liquid in jar, Example 112; format: physicochemical; details: 2% by weight stabilizer; haziness = incompatibility
Method: Formulation Reference: NeoResins, Inc., Formulation WB-2065, Technical Brochure.
as §1
This solution is added to a 4 ounce clear glass jar containing 54.14 parts of NeoCryl BT-520 and 0.43 parts of Instant Stabilizer under vigorous agitation and is agitated for 10 minutes. The lid is placed securely on the jar. The liquid coating samples are visually observed for clarity over time. The development of opacity or haziness is indicative of an incompatibility between the hindered amine stabilizer and the formulated coating.

[14] = Compatibility (clarity) of polyurethane coating in Petri dish, Example 115; format: physicochemical; details: coating of Example 113; oven 75 C 120 minutes; 2% by weight stabilizer
Method: The hindered amine test stabilizers are incorporated into a coating system as described in Example 113. A 9.5-10 gram sample of each of the liquid coatings is added to a 100 mm×15 mm Petri dish and is placed in an oven at 75 C for 120 minutes. The samples are taken out of the oven, allowed to cool, and are visually observed for clarity over time. The development of opacity or haziness is indicative of an incompatibility between the hindered amine stabilizer and the formulated coating.

Structure (SMILES): CCCCN(c1nc(NCCN2CCNCC2)nc(N(CCCC)C2CC(C)(C)N(OC3CCCCC3)C(C)(C)C2)n1)C1CC(C)(C)N(OC2CCCCC2)C(C)(C)C1.Cl [J]
- Solidified coating in jar, clarity, 0 days [1]: clear
- Solidified coating in jar, clarity, 1 days [1]: clear
- Solidified coating in jar, clarity, 19 days [1]: clear

Structure (SMILES): CC(C)(O)CON1C(C)(C)CC(O)CC1(C)C [HALS B, 4-hydroxy-1-(2-hydroxy-2-methylpropoxy)-2,2,6,6-tetramethylpiperidine, reference compound]
- Solubility (% by weight) [2]: 13.6 % by weight
- Solubility (% by weight) [3]: 15.5 % by weight
- Solubility (% by weight) [4]: 13.4 % by weight
- Solubility (% by weight) [5]: 1.4 % by weight

Structure (SMILES): CON1C(C)(C)CC(NCCOCCOCCNC2CC(C)(C)N(OC)C(C)(C)C2)CC1(C)C [L]
- Solidified coating in jar, clarity, 0 days [1]: clear
- Solidified coating in jar, clarity, 1 days [1]: clear
- Solidified coating in jar, clarity, 19 days [1]: clear

Structure (SMILES): CC(C)(O)CON1C(C)(C)CC(=NO)CC1(C)C [Example 2]
- DE for cyan after 4 weeks [6]: 5.53
- DE for yellow after 4 weeks [7]: 3.87
- DE for cyan after 4 weeks [8]: 4.69
- DE for yellow after 4 weeks [9]: 1.36

Structure (SMILES): CC(C)(O)CON1C(C)(C)CC(NCCO)CC1(C)C [Example 1]
- DE for cyan after 4 weeks [6]: 5.29
- DE for cyan after 4 weeks [8]: 4.21
- DE for magenta after 4 weeks [10]: 20.23

Structure (SMILES): CCCCN(c1nc(Nc2ccc(S(=O)(=O)O)cc2)nc(N(CCCC)C2CC(C)(C)N(OC3CCCCC3)C(C)(C)C2)n1)C1CC(C)(C)N(OC2CCCCC2)C(C)(C)C1.Cl [H]
- Solidified coating in jar, clarity, 0 days [1]: clear
- Solidified coating in jar, clarity, 1 days [1]: clear
- Solidified coating in jar, clarity, 19 days [1]: clear

Structure (SMILES): CCCCN(c1nc(Nc2ccc(Cl)c(C(=O)O)c2)nc(N(CCCC)C2CC(C)(C)N(OC3CCCCC3)C(C)(C)C2)n1)C1CC(C)(C)N(OC2CCCCC2)C(C)(C)C1 [G]
- Solidified coating in jar, clarity, 0 days [1]: clear
- Solidified coating in jar, clarity, 1 days [1]: clear
- Solidified coating in jar, clarity, 19 days [1]: clear

Now from value to compound:

- Solubility (% by weight) [2]: <0.1 % by weight
- Solubility (% by weight) [3]: 0.7 % by weight
- Solubility (% by weight) [4]: 0.2 % by weight
- Solubility (% by weight) [5]: <0.1 % by weight
Structure (SMILES): CCCCCCCCON1C(C)(C)CC(OC(=O)CCCCCCCCC(=O)OC2CC(C)(C)N(OCCCCCCCC)C(C)(C)C2)CC1(C)C [HALS A, bis(1-octyloxy-2,2,6,6-tetramethylpiperidin-4-yl) sebacate, reference compound]

- Solidified coating in Petri Dish, clarity, 0 [11]: hazy
- Solidified coating in Petri Dish, clarity, 1 Month [11]: hazy
- Solidified coating in Petri Dish, clarity, Day 1 [11]: hazy
- Solidified coating in jar, clarity, 0 days [1]: hazy
- Solidified coating in jar, clarity, 1 days [1]: hazy
- Solidified coating in jar, clarity, 19 days [1]: hazy
- Solidified coating in jar, clarity, 0 [12]: hazy
- Solidified coating in jar, clarity, 1 Month [12]: hazy
- Solidified coating in jar, clarity, Day 1 [12]: hazy
- Liquid coating in jar, clarity, 0 [13]: hazy
- Liquid coating in jar, clarity, 1 Month [13]: hazy
- Liquid coating in jar, clarity, Day 1 [13]: hazy
- Solidified coating in Petri Dish, clarity, 0 [14]: hazy
- Solidified coating in Petri Dish, clarity, 1 Month [14]: hazy
- Solidified coating in Petri Dish, clarity, Day 1 [14]: hazy
Structure (SMILES): CCCCCCCCON1C(C)(C)CC(OC(=O)CCCCCCCCC(=O)OC2CC(C)(C)N(OCCCCCCCC)C(C)(C)C2)CC1(C)C [B]

- Solidified coating in jar, clarity, 0 days [1]: clear
- Solidified coating in jar, clarity, 1 days [1]: clear
- Solidified coating in jar, clarity, 19 days [1]: clear
Structure (SMILES): CC(=O)O.CCCCN(c1nc(NCCNCCNCCN)nc(N(CCCC)C2CC(C)(C)N(OC3CCCCC3)C(C)(C)C2)n1)C1CC(C)(C)N(OC2CCCCC2)C(C)(C)C1 [I]

- Solubility (% by weight) [2]: ≧18 % by weight
- Solubility (% by weight) [3]: ≧20 % by weight
- Solubility (% by weight) [4]: ≧20 % by weight
- Solubility (% by weight) [5]: ≧8 % by weight
Structure (SMILES): CC(C)(O)CON1C(C)(C)CC(NCC(=O)[O-])CC1(C)C.[K+] [Example 10]
